These results are taken from patent US8445437B2, “Treatment and prevention of cardiovascular disease using mast cell stabilizers” (The Brigham and Women's Hospital, Inc., priority 2006, dated 2013).

Structures are written as SMILES.

The subject of the assay is LDLr-/- mice fed an atherogenic (Western) diet. Briefly: Diet-induced atherosclerosis in LDLr-/- mice with mast cell stabilization or activation. The following applies: male LDLr-/- mice, 25 mg/kg/day daily. It is filed as in vivo, mouse.

Consider `O=C(O)c1cc(=O)c2c(OCC(O)COc3cccc4oc(C(=O)O)cc(=O)c34)cccc2o1` [DSCG, disodium cromoglycate], for which the “reduction of atherosclerotic lesion development” value reads like this: (12 weeks) above 50%; (26 weeks) above 50%.
